Test results as given in patent US12723063B2, “GIPR-agonist compounds” (Eli Lilly and Company, priority 2019, dated 2026).
*1 amine or outer side, *2 acyl side, *3 side chain or, on linkers, in order; H or OH if unused. Where a SMILES comes first, the peptide text is derived from it. Side-chain parts run from the residue outwards. [ ]: non-standard residue; d: D form. The star is where a group is joined. C20 diacid = O=C(O)CCCCCCCCCCCCCCCCCCC(=O)*; C18 diacid = O=C(O)CCCCCCCCCCCCCCCCC(=O)*; αMePhe(2-F) = C[C@](N)(Cc1ccccc1F)C(=O)O; γGlu = O=C(O)[C@H](CCC(=O)[*:2])N[*:1]; 4Pal = N[C@@H](Cc1ccncc1)C(=O)O; αMeL = CC(C)C[C@](C)(N)C(=O)O; Orn = NCCC[C@H](N)C(=O)O; AEEA = NCCOCCOCC(=O)O; Aib = CC(C)(N)C(=O)O

How the values were obtained:
human GIPR = biological target: T1, human GIPR (Homo sapiens, UniProt P48546); test: [125I]-GIP binding, SPA with WGA beads, 0.1% bacitracin; conditions: geometric mean, read-out: hGIPR Ki
T1 construct: expressed in transfected cells; crude membranes
T1 sequence (P48546 22-466): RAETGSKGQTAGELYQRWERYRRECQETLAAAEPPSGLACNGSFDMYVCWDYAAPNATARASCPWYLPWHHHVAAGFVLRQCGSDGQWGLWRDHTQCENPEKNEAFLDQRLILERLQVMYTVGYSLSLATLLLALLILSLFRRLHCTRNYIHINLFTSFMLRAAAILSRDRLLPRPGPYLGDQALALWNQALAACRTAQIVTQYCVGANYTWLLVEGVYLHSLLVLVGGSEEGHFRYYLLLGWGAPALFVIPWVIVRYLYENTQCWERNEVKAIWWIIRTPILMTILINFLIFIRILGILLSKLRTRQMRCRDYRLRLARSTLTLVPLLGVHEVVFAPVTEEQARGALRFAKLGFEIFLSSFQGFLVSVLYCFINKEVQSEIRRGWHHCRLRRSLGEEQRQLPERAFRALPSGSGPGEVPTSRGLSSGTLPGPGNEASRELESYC
Outline: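 Ki values are geometric means (SEM, n independent days), derived from four-parameter nonlinear regression of IC50. Membranes came from hGIPR-expressing CHO cells.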

[1] = biological target: T2, human GLP-1 receptor (GLP-1R) (Homo sapiens, UniProt P43220); test: cAMP functional assay (HTRF) in HEK293 cells in presence of 0.1% casein; assay type: cell-based; conditions: HEK293 cells expressing human GLP-1R, geometric mean, read-out: hGLP1R cAMP Rel EC50 nM (SEM, n)
T2 construct: expressed in transfected cells; host or cells: HEK293
T2 sequence (P43220 24-463): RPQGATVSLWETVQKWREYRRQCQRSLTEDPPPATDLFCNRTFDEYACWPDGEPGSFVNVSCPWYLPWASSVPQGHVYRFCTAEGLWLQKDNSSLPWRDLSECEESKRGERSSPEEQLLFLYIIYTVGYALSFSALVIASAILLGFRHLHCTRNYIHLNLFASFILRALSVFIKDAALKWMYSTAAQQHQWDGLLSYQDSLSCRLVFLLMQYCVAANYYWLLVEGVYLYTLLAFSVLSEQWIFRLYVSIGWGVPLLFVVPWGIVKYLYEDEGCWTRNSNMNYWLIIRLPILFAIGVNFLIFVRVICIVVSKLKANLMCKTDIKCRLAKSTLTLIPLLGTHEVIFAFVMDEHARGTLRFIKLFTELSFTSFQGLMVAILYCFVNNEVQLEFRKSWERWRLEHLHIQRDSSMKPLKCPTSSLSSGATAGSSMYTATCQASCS

| SMILES | Ki (human GIPR) [nM] | EC50 [1] [nM] |
| --- | --- | --- |
| CC[C@H](C)[C@H](NC(=O)[C@H](CCCCN)NC(=O)[C@H](CC(=O)O)NC(=O)[C@H](CC(C)C)NC(=O)[C@](C)(CC(C)C)NC(=O)[C@@H](NC(=O)[C@H](CO)NC(=O)[C@H](Cc1ccc(O)cc1)NC(=O)[C@H](CC(=O)O)NC(=O)[C@H](CO)NC(=O)[C@@H](NC(=O)[C@H](Cc1ccccc1)NC(=O)[C@@H](NC(=O)CNC(=O)[C@H](CCC(=O)O)NC(=O)C(C)(C)NC(=O)[C@@H](N)Cc1ccc(O)cc1)[C@@H](C)O)[C@@H](C)CC)[C@@H](C)CC)C(=O)N[C@@H](Cc1c[nH]cn1)C(=O)N[C@@H](CCC(N)=O)C(=O)NC(C)(C)C(=O)N[C@@H](CC(=O)O)C(=O)N[C@@H](Cc1ccccc1)C(=O)N[C@H](C(=O)N[C@@H](CCC(=O)O)C(=O)N[C@@H](Cc1ccncc1)C(=O)N[C@@H](CCCCNC(=O)COCCOCCNC(=O)COCCOCCNC(=O)CC[C@H](NC(=O)CCCCCCCCCCCCCCCCC(=O)O)C(=O)O)C(=O)N[C@@H](CC(C)C)C(=O)N[C@@H](CCC(=O)O)C(=O)NCC(=O)NCC(=O)N1CCC[C@H]1C(=O)N[C@@H](CO)C(=O)N[C@@H](CO)C(=O)NCC(=O)N[C@@H](C)C(=O)N1CCC[C@H]1C(=O)N1CCC[C@H]1C(=O)N1CCC[C@H]1C(=O)N[C@@H](CO)C(N)=O)C(C)C [Example 110] (H-Y[Aib]EGTFISDYSI[αMeL]LDKIHQ[Aib]DFVE[4Pal]K([AEEA-AEEA-γGlu-C18 diacid])LEGGPSSGAPPPS-NH2) | 0.339 | > 5000 |
| CC[C@H](C)[C@H](NC(=O)[C@H](CCCN)NC(=O)[C@H](CC(=O)O)NC(=O)[C@H](CC(C)C)NC(=O)[C@](C)(CC(C)C)NC(=O)[C@@H](NC(=O)[C@H](CO)NC(=O)[C@H](Cc1ccc(O)cc1)NC(=O)[C@H](CC(=O)O)NC(=O)[C@H](CO)NC(=O)[C@@H](NC(=O)[C@H](Cc1ccccc1)NC(=O)[C@@H](NC(=O)CNC(=O)[C@H](CCC(=O)O)NC(=O)C(C)(C)NC(=O)[C@@H](N)Cc1ccc(O)cc1)[C@@H](C)O)[C@@H](C)CC)[C@@H](C)CC)C(=O)N[C@@H](Cc1c[nH]cn1)C(=O)N[C@@H](CCC(N)=O)C(=O)NC(C)(C)C(=O)N[C@@H](CC(=O)O)C(=O)N[C@@H](Cc1ccccc1)C(=O)N[C@H](C(=O)N[C@@H](CCC(=O)O)C(=O)N[C@@H](Cc1ccncc1)C(=O)N[C@@H](CCCCNC(=O)COCCOCCNC(=O)COCCOCCNC(=O)CC[C@H](NC(=O)CCCCCCCCCCCCCCCCC(=O)O)C(=O)O)C(=O)N[C@@H](CC(C)C)C(=O)N[C@@H](CCC(=O)O)C(=O)NCC(=O)NCC(=O)N1CCC[C@H]1C(=O)N[C@@H](CO)C(=O)N[C@@H](CO)C(=O)NCC(=O)N[C@@H](C)C(=O)N1CCC[C@H]1C(=O)N1CCC[C@H]1C(=O)N1CCC[C@H]1C(=O)N[C@@H](CO)C(N)=O)C(C)C [Example 111] (H-Y[Aib]EGTFISDYSI[αMeL]LD[Orn]IHQ[Aib]DFVE[4Pal]K([AEEA-AEEA-γGlu-C18 diacid])LEGGPSSGAPPPS-NH2) | 0.0871 | > 5000 |
| CC[C@H](C)[C@H](NC(=O)[C@H](CO)NC(=O)[C@H](Cc1ccc(O)cc1)NC(=O)[C@H](CC(=O)O)NC(=O)[C@H](CO)NC(=O)[C@@H](NC(=O)[C@](C)(Cc1ccccc1F)NC(=O)[C@@H](NC(=O)CNC(=O)[C@H](CCC(=O)O)NC(=O)C(C)(C)NC(=O)[C@@H](N)Cc1ccc(O)cc1)[C@@H](C)O)[C@@H](C)CC)C(=O)N[C@@H](C)C(=O)N[C@@H](CC(C)C)C(=O)N[C@@H](CC(=O)O)C(=O)N[C@@H](CCCCN)C(=O)N[C@H](C(=O)N[C@@H](Cc1c[nH]cn1)C(=O)N[C@@H](CCC(N)=O)C(=O)NC(C)(C)C(=O)N[C@@H](CC(=O)O)C(=O)N[C@@H](Cc1ccccc1)C(=O)N[C@H](C(=O)N[C@@H](CCC(=O)O)C(=O)N[C@@H](Cc1ccncc1)C(=O)N[C@@H](CCCCNC(=O)COCCOCCNC(=O)COCCOCCNC(=O)CC[C@H](NC(=O)CCCCCCCCCCCCCCCCCCC(=O)O)C(=O)O)C(=O)N[C@@H](CC(C)C)C(=O)N[C@@H](CCC(=O)O)C(=O)NCC(=O)NCC(=O)N1CCC[C@H]1C(=O)N[C@@H](CO)C(=O)N[C@@H](CO)C(=O)NCC(=O)N[C@@H](C)C(=O)N1CCC[C@H]1C(=O)N1CCC[C@H]1C(=O)N1CCC[C@H]1C(=O)N[C@@H](CO)C(N)=O)C(C)C)[C@@H](C)CC [Example 112] (H-Y[Aib]EGT[αMePhe(2-F)]ISDYSIALDKIHQ[Aib]DFVE[4Pal]K([AEEA-AEEA-γGlu-C20 diacid])LEGGPSSGAPPPS-NH2) | 0.0742 | > 5000 |
| CC[C@H](C)[C@H](NC(=O)[C@H](CO)NC(=O)[C@H](Cc1ccc(O)cc1)NC(=O)[C@H](CC(=O)O)NC(=O)[C@H](CO)NC(=O)[C@@H](NC(=O)[C@](C)(Cc1ccccc1F)NC(=O)[C@@H](NC(=O)CNC(=O)[C@H](CCC(=O)O)NC(=O)C(C)(C)NC(=O)[C@@H](N)Cc1ccc(O)cc1)[C@@H](C)O)[C@@H](C)CC)C(=O)N[C@@H](C)C(=O)N[C@@H](CC(C)C)C(=O)N[C@@H](CC(=O)O)C(=O)N[C@@H](CCCCN)C(=O)N[C@H](C(=O)N[C@@H](Cc1c[nH]cn1)C(=O)N[C@@H](CCC(N)=O)C(=O)NC(C)(C)C(=O)N[C@@H](CC(=O)O)C(=O)N[C@@H](Cc1ccccc1)C(=O)N[C@H](C(=O)N[C@@H](CCC(=O)O)C(=O)N[C@@H](Cc1ccncc1)C(=O)N[C@@H](CCCCNC(=O)COCCOCCNC(=O)COCCOCCNC(=O)CC[C@H](NC(=O)CCCCCCCCCCCCCCCCCCC(=O)O)C(=O)O)C(=O)N[C@@H](CC(C)C)C(=O)N[C@@H](CCC(=O)O)C(=O)N[C@@H](C)C(=O)NCC(=O)N1CCC[C@H]1C(=O)N[C@@H](CO)C(=O)N[C@@H](CO)C(=O)NCC(=O)N[C@@H](C)C(=O)N1CCC[C@H]1C(=O)N1CCC[C@H]1C(=O)N1CCC[C@H]1C(=O)N[C@@H](CO)C(N)=O)C(C)C)[C@@H](C)CC [Example 113] (H-Y[Aib]EGT[αMePhe(2-F)]ISDYSIALDKIHQ[Aib]DFVE[4Pal]K([AEEA-AEEA-γGlu-C20 diacid])LEAGPSSGAPPPS-NH2) | 0.108 | > 5000 |
| CC[C@H](C)[C@H](NC(=O)[C@H](CO)NC(=O)[C@H](Cc1ccc(O)cc1)NC(=O)[C@H](CC(=O)O)NC(=O)[C@H](CO)NC(=O)[C@@H](NC(=O)[C@](C)(Cc1ccccc1F)NC(=O)[C@@H](NC(=O)CNC(=O)[C@H](CCC(=O)O)NC(=O)C(C)(C)NC(=O)[C@@H](N)Cc1ccc(O)cc1)[C@@H](C)O)[C@@H](C)CC)C(=O)N[C@@H](C)C(=O)N[C@@H](CC(C)C)C(=O)N[C@@H](CC(=O)O)C(=O)N[C@@H](CCCCN)C(=O)N[C@H](C(=O)N[C@@H](Cc1c[nH]cn1)C(=O)N[C@@H](CCC(N)=O)C(=O)NC(C)(C)C(=O)N[C@@H](CC(=O)O)C(=O)N[C@@H](Cc1ccccc1)C(=O)N[C@H](C(=O)N[C@@H](CCC(=O)O)C(=O)N[C@@H](Cc1ccncc1)C(=O)N[C@@H](CCCCNC(=O)COCCOCCNC(=O)COCCOCCNC(=O)CC[C@H](NC(=O)CCCCCCCCCCCCCCCCCCC(=O)O)C(=O)O)C(=O)N[C@@H](CC(C)C)C(=O)N[C@@H](CCC(=O)O)C(=O)N[C@@H](CCC(N)=O)C(=O)NCC(=O)N1CCC[C@H]1C(=O)N[C@@H](CO)C(=O)N[C@@H](CO)C(=O)NCC(=O)N[C@@H](C)C(=O)N1CCC[C@H]1C(=O)N1CCC[C@H]1C(=O)N1CCC[C@H]1C(=O)N[C@@H](CO)C(N)=O)C(C)C)[C@@H](C)CC [Example 114] (H-Y[Aib]EGT[αMePhe(2-F)]ISDYSIALDKIHQ[Aib]DFVE[4Pal]K([AEEA-AEEA-γGlu-C20 diacid])LEQGPSSGAPPPS-NH2) | 0.121 | > 5000 |
| CC[C@H](C)[C@H](NC(=O)[C@H](CCCCN)NC(=O)[C@H](CC(=O)O)NC(=O)[C@H](CC(C)C)NC(=O)[C@](C)(CC(C)C)NC(=O)[C@@H](NC(=O)[C@H](CO)NC(=O)[C@H](Cc1ccc(O)cc1)NC(=O)[C@H](CC(=O)O)NC(=O)[C@H](CO)NC(=O)[C@@H](NC(=O)[C@H](Cc1ccccc1)NC(=O)[C@@H](NC(=O)CNC(=O)[C@H](CCC(=O)O)NC(=O)C(C)(C)NC(=O)[C@@H](N)Cc1ccc(O)cc1)[C@@H](C)O)[C@@H](C)CC)[C@@H](C)CC)C(=O)N[C@@H](CCCNC(=N)N)C(=O)N[C@@H](CCC(N)=O)C(=O)NC(C)(C)C(=O)N[C@@H](CC(=O)O)C(=O)N[C@@H](Cc1ccccc1)C(=O)N[C@H](C(=O)N[C@@H](CCC(=O)O)C(=O)N[C@@H](Cc1ccc(O)cc1)C(=O)N[C@@H](CCCCNC(=O)COCCOCCNC(=O)COCCOCCNC(=O)CC[C@H](NC(=O)CCCCCCCCCCCCCCCCCCC(=O)O)C(=O)O)C(=O)N[C@@H](CC(C)C)C(=O)N[C@@H](CCC(=O)O)C(=O)NCC(=O)NCC(=O)N1CCC[C@H]1C(=O)N[C@@H](CO)C(=O)N[C@@H](CO)C(=O)NCC(=O)N[C@@H](C)C(=O)N1CCC[C@H]1C(=O)N1CCC[C@H]1C(=O)N1CCC[C@H]1C(=O)N[C@@H](CO)C(N)=O)C(C)C [Example 115] (H-Y[Aib]EGTFISDYSI[αMeL]LDKIRQ[Aib]DFVEYK([AEEA-AEEA-γGlu-C20 diacid])LEGGPSSGAPPPS-NH2) | 0.0997 | > 5000 |
